# From patent publication US20050282824A1, “Substituted pyrimidines as inhibitors of bacterial type III protein secretion systems” (priority 2004, published 2005)
# How the values were obtained:
# [1] = tested on: SPI1 type III protein secretion of SipB by S. enterica; experiment: Secondary assay: Type III-dependent protein secretion of the SipB polypeptide by S. enterica; format: cell-based; details: Salmonella enterica, read-out: SipB IC50(uM)
# Protocol: Secondary assay: Type III-dependent protein secretion of the SipB polypeptide by S. enterica. The SipB protein of S. enterica is another effector of the SPI1 type III protein secretion system from S. enterica. In this cell-based procedure, the Type III-dependent secretion of SipB from the bacterial cytoplasm to the extracellular medium was measured through its reactivity with a cognate mouse monoclonal.
# Salmonella enterica cells growing either in the presence or in the absence of inhibitors are induced for the production of SipB. Following an established period of growth the cells are sedimented and the amount of SipB present in the supernatant is quantified with a scanning imager following application of immunoblot techniques. Detection may employ an anti-SipB mouse monoclonal antibody (e.g., obtained from Jorge Galan, SUNY at Stony Brook, N.Y.) followed by treatment with commercially available sheep anti-mouse polyclonal antibody conjugated with horseradish peroxidase. Thereafter the membrane is treated with a peroxidase chemiluminescent substrate and exposed to film for an appropriate exposure time. Inhibition may be measured relative to untreated controls.
# [2] = tested on: SPI1 type III protein secretion of SopE'-'Bla by Salmonella enterica; experiment: Primary assay: Type III protein secretion of the chimeric SopE'-'Bla polypeptide by Salmonella enterica; format: cell-based; details: read-out: SopE IC50(uM)
# Text: Primary assay: Type III protein secretion of the chimeric SopE′-′Bla polypeptide by Salmonella enterica. This procedure is a cell-based assay that measures the type III-dependent secretion by Salmonella enterica of a plasmid-encoded chimeric polypeptide whose synthesis can be regulated, and which is endowed with an enzymatic activity that can be monitored […] by hydrolysis of a substrate that is unable to penetrate into the bacterial cytoplasm within the time constraints of the reaction. Thus, the colorimetric reaction is not influenced by SopE′-′Bla polypeptide in the bacterial cytoplasm. Instead, it effectively measures the amount of polypeptide that has been secreted from the S. enterica cytoplasm to the extracellular medium via type III system protein secretion.
# The SopE′-′Bla recombinant polypeptide consists of two functionally distinct domains spliced together. The N-terminus domain is encoded by a polynucleotide region specifying the signal for type III secretion of the SopE polypeptide of S. enterica, an effector of the SPI1 type III protein secretion system. The C-terminus domain of SopE′-′Bla consists of a 263 amino acid peptide sequence that corresponds to the TEM-1 β-lactamase expressed by plasmid pBR322 but without its N-terminal signal sequence. The TEM-1 β-lactamase part of the SopE′-′Bla chimeric polypeptide is used as a reporter enzyme. It is capable of hydrolyzing nitrocefin resulting in a product whose accumulation can be monitored by colorimetric detection. The secretion of the SopE′-′Bla chimeric polypeptide from the cytoplasm to the extracellular medium is dependent on type III protein secretion.
# For this procedure, cells grown under conditions known to favor a functional SPI1 secretion system are induced for expression of the SopE′-′Bla protein and grown either in the presence or in the absence of putative inhibitors for determined time. Nitrocefin is then added to the various cultures and its hydrolysis are used for quantitation. An inhibitor of Type III protein secretion is generally a compound that reduces the signal of the enzymatic reaction by decreasing the amount of SopE′-′Bla secreted into the extracellular medium.
SMILES,IC50 [1],IC50 [2]
"O=C(N[C@H](Cc1ccc(Cl)cc1)C(=O)O)c1cc(N2CCc3ccccc3C2)nc(-c2cccc(C(F)(F)F)c2)n1 [Compound 7, (R)-3-(4-Chlorophenyl)-2-{[6-(3,4-dihydro-1H-isoquinolin-2-yl)-2-(3-trifluoromethylphenyl)pyrimidine-4-carbonyl]amino}propionic acid]",> 100 µM,1.2 µM
"O=C(N[C@H](Cc1ccc(Cl)cc1)C(=O)O)c1cc(N2CCc3ccccc3C2)nc(-c2ccc(C(F)(F)F)cc2)n1 [Compound 8, (R)-3-(4-Chlorophenyl)-2-{[6-(3,4-dihydro-1H-isoquinolin-2-yl)-2-(4-trifluoromethylphenyl)pyrimidine-4-carbonyl]amino}propionic acid]",> 100 µM,2 µM
"N#Cc1ccc(-c2nc(C(=O)N[C@H](Cc3ccc(Cl)cc3)C(=O)O)cc(N3CCc4ccccc4C3)n2)cc1 [Compound 10, (R)-3-(4-Chlorophenyl)-2-{[2-(4-cyanophenyl)-6-(3,4-dihydro-1H-isoquinolin-2-yl)pyrimidine-4-carbonyl]amino}propionic acid]",> 100 µM,4.3 µM
"O=C(N[C@@H](CSCc1ccccc1)C(=O)O)c1cc(N2CCN(c3ccccc3)CC2)nc(-c2ccc(Cl)c(Cl)c2)n1 [Compound 20, (R)-3-Benzylsulfanyl-2-{[2-(3,4-dichlorophenyl)-6-(4-phenyl-piperazin-1-yl)-pyrimidine-4-carbonyl]amino}propionic acid]",> 100 µM,2.1 µM
"O=C(N[C@@H](COCc1ccccc1)C(=O)O)c1cc(N2CCCCC2)nc(N2CCC(c3ccccc3)CC2)n1 [Compound 28, (S)-3-Benzyloxy-2-{[2-(4-phenylpiperidin-1-yl)-6-piperidin-1-yl-pyrimidine-4-carbonyl]amino}propionic acid]",18.5 µM,5.2 µM
"CC1CCN(c2cc(C(=O)N[C@@H](CSCc3ccccc3)C(=O)O)nc(-c3ccc(Oc4ccccc4)cc3)n2)CC1 [Compound 37, (R)-3-Benzylsulfanyl-2-{[6-(4-methylpiperidin-1-yl)-2-(4-phenoxyphenyl)-pyrimidine-4-carbonyl]amino}propionic acid]",> 100 µM,1.7 µM
"CN1CCN(c2nc(C(=O)N[C@@H](CSCc3ccccc3)C(=O)O)cc(N3CCN(c4nccc(C(F)(F)F)n4)CC3)n2)CC1 [Compound 44, (R)-3-Benzylsulfanyl-2-({2-(4-methyl-piperazin-1-yl)-6-[4-(4-trifluoromethyl-pyrimidin-2-yl)piperazin-1-yl]pyrimidine-4-carbonyl}amino)propionic acid]",> 100 µM,85 µM
"CC1CCN(c2nc(C(=O)N[C@@H](CSCc3ccccc3)C(=O)O)cc(N3CCN(c4nccc(C(F)(F)F)n4)CC3)n2)CC1 [Compound 46, (R)-3-Benzylsulfanyl-2-({2-(4-methylpiperidin-1-yl)-6-[4-(4-trifluoromethyl-pyrimidin-2-yl)piperazin-1-yl]pyrimidine-4-carbonyl}amino)propionic acid]",10.6 µM,3.4 µM
"CN(C)c1ccc(-c2nc(C(=O)N[C@@H](CSCc3ccccc3)C(=O)O)cc(N3CCN(c4nccc(C(F)(F)F)n4)CC3)n2)cc1 [Compound 50, (R)-3-Benzylsulfanyl-2-({2-(4-dimethylaminophenyl)-6-[4-(4-trifluoromethyl-pyrimidin-2-yl)piperazin-1-yl]pyrimidine-4-carbonyl}amino)propionic acid]",> 100 µM,20.1 µM
"O=C(N[C@@H](CSCc1ccccc1)C(=O)O)c1cc(N2CCN(c3nccc(C(F)(F)F)n3)CC2)nc(-c2ccc([N+](=O)[O-])cc2)n1 [Compound 52, (R)-3-Benzylsulfanyl-2-({2-(4-nitrophenyl)-6-[4-(4-trifluoromethylpyrimidin-2-yl)-piperazin-1-yl]pyrimidine-4-carbonyl}amino)propionic acid]",15 µM,10.4 µM
"O=C(N[C@@H](COCc1ccccc1)C(=O)O)c1cc(N2CCN(c3nccc(C(F)(F)F)n3)CC2)nc(-c2ccc(F)cc2)n1 [Compound 54, (S)-3-Benzyloxy-2-({2-(4-fluorophenyl)-6-[4-(4-trifluoromethylpyrimidin-2-yl)-piperazin-1-yl]pyrimidine-4-carbonyl}amino)propionic acid]",2.7 µM,1.3 µM
"O=C(N[C@@H](CSCc1ccccc1)C(=O)O)c1cc(N2CCN(c3nccc(C(F)(F)F)n3)CC2)nc(-c2ccc(F)cc2)n1 [Compound 55, (R)-3-Benzylsulfanyl-2-({2-(4-fluorophenyl)-6-[4-(4-trifluoromethylpyrimidin-2-yl)-piperazin-1-yl]pyrimidine-4-carbonyl}amino)propionic acid]",20.5 µM,2.4 µM
"O=C(N[C@@H](COCc1ccccc1)C(=O)O)c1cc(N2CCN(c3nccc(C(F)(F)F)n3)CC2)nc(-c2cccs2)n1 [Compound 57, (S)-3-Benzyloxy-2-({2-thiophen-2-yl-6-[4-(4-trifluoromethylpyrimidin-2-yl)-piperazin-1-yl]pyrimidine-4-carbonyl}amino)propionic acid]",13.3 µM,28.7 µM
"O=C(N[C@@H](CSCc1ccccc1)C(=O)O)c1cc(N2CCN(c3nccc(C(F)(F)F)n3)CC2)nc(-c2cccs2)n1 [Compound 58, (R)-3-Benzylsulfanyl-2-({2-thiophen-2-yl-6-[4-(4-trifluoromethylpyrimidin-2-yl)-piperazin-1-yl]pyrimidine-4-carbonyl}amino)propionic acid]",10.6 µM,4.5 µM
"O=C(NC(Cc1ccc(Cl)cc1)C(=O)O)c1cc(N2CCN(c3nccc(C(F)(F)F)n3)CC2)nc(-c2cccs2)n1 (stereo not shown) [Compound 59, 3-(4-Chlorophenyl)-2-({2-thiophen-2-yl-6-[4-(4-trifluoromethylpyrimidin-2-yl)-piperazin-1-yl]pyrimidine-4-carbonyl}amino)propionic acid]",17.1 µM,1.8 µM
"O=C(NC(Cc1ccc(Cl)cc1)C(=O)O)c1cc(N2CCN(c3nccc(C(F)(F)F)n3)CC2)nc(-c2ccoc2)n1 (stereo not shown) [Compound 62, 3-(4-Chlorophenyl)-2-({2-furan-3-yl-6-[4-(4-trifluoromethylpyrimidin-2-yl)-piperazin-1-yl]pyrimidine-4-carbonyl}amino)propionic acid]",12.6 µM,5.4 µM
"C=C(NC(=O)c1cc(N2CCN(c3nccc(C(F)(F)F)n3)CC2)nc(-c2ccoc2)n1)C(=O)O [Compound 63, 2-({2-Furan-3-yl-6-[4-(4-trifluoromethylpyrimidin-2-yl)piperazin-1-yl]pyrimidine-4-carbonyl}amino)acrylic acid]",> 100 µM,21.4 µM
